Here are results for 21 compounds from patent publication EP3623369A1, “NOVEL MORPHOLINYL AMINE COMPOUNDS FOR THE TREATMENT OF AUTOIMMUNE DISEASE” (F. Hoffmann-La Roche AG, priority 2018, dated 2020).

This assay deals with T1, hTLR9 (Homo sapiens, UniProt Q9NR96).
T1 sequence (Q9NR96 26-1032): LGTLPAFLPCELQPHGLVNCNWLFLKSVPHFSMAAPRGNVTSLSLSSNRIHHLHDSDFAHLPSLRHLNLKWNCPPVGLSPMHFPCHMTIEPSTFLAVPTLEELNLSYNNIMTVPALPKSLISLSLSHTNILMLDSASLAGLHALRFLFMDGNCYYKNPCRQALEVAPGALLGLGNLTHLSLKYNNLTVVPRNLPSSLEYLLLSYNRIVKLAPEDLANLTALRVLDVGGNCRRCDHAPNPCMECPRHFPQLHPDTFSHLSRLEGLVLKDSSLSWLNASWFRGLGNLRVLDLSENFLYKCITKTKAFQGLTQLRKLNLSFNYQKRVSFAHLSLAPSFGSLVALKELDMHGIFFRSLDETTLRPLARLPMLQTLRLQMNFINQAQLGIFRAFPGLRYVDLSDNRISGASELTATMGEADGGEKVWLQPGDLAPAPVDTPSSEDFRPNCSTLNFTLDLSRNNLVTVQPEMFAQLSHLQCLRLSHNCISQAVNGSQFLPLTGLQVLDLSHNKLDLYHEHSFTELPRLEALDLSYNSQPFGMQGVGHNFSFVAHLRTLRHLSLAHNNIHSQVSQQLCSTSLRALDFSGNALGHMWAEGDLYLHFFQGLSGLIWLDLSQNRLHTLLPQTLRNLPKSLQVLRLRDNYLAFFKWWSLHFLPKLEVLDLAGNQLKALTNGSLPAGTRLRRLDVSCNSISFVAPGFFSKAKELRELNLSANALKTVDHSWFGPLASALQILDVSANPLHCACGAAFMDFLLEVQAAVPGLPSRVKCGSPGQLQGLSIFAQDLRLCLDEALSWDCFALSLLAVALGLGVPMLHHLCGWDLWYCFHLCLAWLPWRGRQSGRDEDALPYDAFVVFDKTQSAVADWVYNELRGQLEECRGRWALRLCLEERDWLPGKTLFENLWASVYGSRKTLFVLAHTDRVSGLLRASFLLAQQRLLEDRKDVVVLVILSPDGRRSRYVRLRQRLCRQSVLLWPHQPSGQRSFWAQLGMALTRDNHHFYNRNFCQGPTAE
The assay is described as follows: HEK293-Blue-hTLR-9 cells assay (SEAP reporter, ODN2006 stimulation). Type of assay: cell-based. The note with it: HEK293-Blue-hTLR9 cells, ODN2006, 20 hrs; 0.032 is the lowest tested concentration; read-out: HEK/hTLR9 IC50. How it is done: The following tests were carried out in order to determine the activity of the compounds of formula (I) or (Ia) in HEK293-Blue-hTLR-7/8/9 cells assay.
HEK293-Blue-hTLR-9 cells assay:
A stable HEK293-Blue-hTLR-9 cell line was purchased from InvivoGen (Cat.#: hkb-htlr9, San Diego, California, USA). These cells were originally designed for studying the stimulation of human TLR9 by monitoring the activation of NF-κB. A SEAP (secreted embryonic alkaline phosphatase) reporter gene was placed under the control of the IFN-β minimal promoter fused to five NF-κB and AP-1-binding sites. The SEAP was induced by activating NF-κB and AP-1 via stimulating HEK-Blue hTLR9 cells with TLR9 ligands. Therefore the reporter expression was declined by TLR9 antagonist under the stimulation of a ligand, such as ODN2006 (Cat.#: tlrl-2006-1, Invivogen, San Diego, California, USA), for incubation of 20 hrs. The cell culture supernatant SEAP reporter activity was determined using QUANTI-Blue™ kit (Cat.#: rep-qb1, Invivogen, San Diego, California, USA) at a wavelength of 640 nm, a detection medium that turns purple or blue in the presence of alkaline phosphatase.
HEK293-Blue-hTLR9 cells were incubated at a density of 250,000∼450,000 cells/mL in a volume of 170 µL in a 96-well plate in Dulbecco's Modified Eagle's medium (DMEM) containing 4.5 g/L glucose, 50 U/mL penicillin, […], […], 2 mM L-glutamine, 10% (v/v) heat-inactivated fetal bovine serum with addition of 20 µL test compound in a serial dilution in the presence of final DMSO at 1% and 10 µL of 20uM ODN2006 in above DMEM, perform incubation under 37 °C in a CO2 incubator for 20 hrs. Then 20 µL of the supernatant from each well was incubated with 180 µL Quanti-blue substrate solution at 37 °C for 2 hrs and the absorbance was read at 620∼655 nm using a spectrophotometer. The signalling pathway that TLR9 activation leads to downstream NF-κB activation has been widely accepted, and therefore similar reporter assay was modified for evaluating TLR9 antagonist.

As for “3-fluoro-4-[(2R,6S)-2-methyl-6-[(5-piperazin-1-ylisoindolin-2-yl)methyl]morpholin-4-yl]pyrazolo[1,5-a]pyridine-7-carbonitrile [Example 7]”, the IC50 stood at 91 nM.

Regarding “5-[(2S,6R)-2-[[5-[3-(hydroxymethyl)piperazin-1-yl]isoindolin-2-yl]methyl]-6-methyl-morpholin-4-yl]quinoline-8-carbonitrile [Example 85]”, the IC50 is 51 nM. `C[C@@H]1CN(c2ccc3c(c2)CN(C[C@H]2CN(c4ccc(C#N)c5ncccc45)C[C@@H](C)O2)C3)C[C@@H](C)N1` (mixture of isomers) [Example 57, Trans-5-[(2R,6S)-2-methyl-6-[[5-[3,5-dimethylpiperazin-1-yl]isoindolin-2-yl]methyl]morpholin-4-yl]quinoline-8-carbonitrile]: the IC50 came to 98 nM.

Take `C[C@@H]1CN(c2ccc(C#N)c3ncccc23)C[C@H](CNCc2ccccc2)O1` [ER-886509, reference compound]: the IC50 was 2080 nM. The value for `C[C@@H]1CN(c2ccc(C#N)n3nccc23)C[C@H](CN2Cc3ccc(N4CCNCC4)cc3C2)O1` [Example 4, 4-[(2R,6S)-2-methyl-6-[(5-piperazin-1-ylisoindolin-2-yl)methyl]morpholin-4-yl]pyrazolo[1,5-a]pyridine-7-carbonitrile] was 55 nM; that for `C[C@@H]1CN(c2ccc(C#N)n3nccc23)C[C@H](CN2Cc3ccc(C4CCNCC4)cc3C2)O1` [Example 8, 4-[(2R,6S)-2-methyl-6-[[5-(4-piperidyl)isoindolin-2-yl]methyl]morpholin-4-yl]pyrazolo[1,5-a]pyridine-7-carbonitrile] was 62 nM; that for `C[C@@H]1CN(c2ccc(C#N)n3nccc23)C[C@H](CN2Cc3ccc(C4CCNC4)cc3C2)O1` (stereo partly drawn) [Example 9, 4-[(2R,6S)-2-methyl-6-[(5-pyrrolidin-3-ylisoindolin-2-yl)methyl]morpholin-4-yl]pyrazolo[1,5-a]pyridine-7-carbonitrile] was 64 nM. As to `C[C@@H]1CN(c2ccc(C#N)n3nccc23)C[C@H](CN2CCc3cc(N4CCNCC4)ccc3C2)O1` [Example 10, 4-[(2R,6S)-2-methyl-6-[(6-piperazin-1-yl-3,4-dihydro-1H-isoquinolin-2-yl)methyl]morpholin-4-yl]pyrazolo[1,5-a]pyridine-7-carbonitrile], the IC50 is 67 nM. The value for `C[C@@H]1CN(c2ccc(C#N)n3nccc23)C[C@H](CN2CCc3ccc(N4CCNCC4)cc3C2)O1` [Example 11, 4-[(2R,6S)-2-methyl-6-[(7-piperazin-1-yl-3,4-dihydro-1H-isoquinolin-2-yl)methyl]morpholin-4-yl]pyrazolo[1,5-a]pyridine-7-carbonitrile] was 60 nM. In the case of `C[C@@H]1CN(c2ccc(C#N)c3nccnc23)C[C@H](CN2Cc3ccc(N4CCNCC4)cc3C2)O1` [Example 12, 8-[(2R,6S)-2-methyl-6-[(5-piperazin-1-ylisoindolin-2-yl)methyl]morpholin-4-yl]quinoxaline-5-carbonitrile] it was 52 nM. The value for `C[C@@H]1CN(c2ccc(C#N)c3nccnc23)C[C@H](CN2CCc3cc(N4CCNCC4)ccc3C2)O1` [Example 13, 8-[(2R,6S)-2-methyl-6-[(6-piperazin-1-yl-3,4-dihydro-1H-isoquinolin-2-yl)methyl]morpholin-4-yl]quinoxaline-5-carbonitrile] was 54 nM; that for `C[C@@H]1CN(c2ccc(C#N)n3ncc(F)c23)C[C@H](CN2CCc3cc(N4CCNCC4)ccc3C2)O1` [Example 14, 3-fluoro-4-[(2R,6S)-2-methyl-6-[(6-piperazin-1-yl-3,4-dihydro-1H-isoquinolin-2-yl)methyl]morpholin-4-yl]pyrazolo[1,5-a]pyridine-7-carbonitrile] was 117 nM; that for `C[C@@H]1CN(c2ccc(C#N)n3nccc23)C[C@H](CN2CCc3cc(N4CCN(C)CC4)ccc3C2)O1` [Example 15, 4-[(2R,6S)-2-methyl-6-[[6-(4-methylpiperazin-1-yl)-3,4-dihydro-1H-isoquinolin-2-yl]methyl]morpholin-4-yl]pyrazolo[1,5-a]pyridine-7-carbonitrile] was 46 nM.

In the case of `C[C@@H]1CN(c2ccc(C#N)n3nccc23)C[C@H](CNCc2ccc(N3CCNCC3)cc2)O1` [Example 16, 4-[(2R,6S)-2-methyl-6-[[(4-piperazin-1-ylphenyl)methylamino]methyl]morpholin-4-yl]pyrazolo[1,5-a]pyridine-7-carbonitrile], the IC50 turned out to be 82 nM. In the case of `C[C@@H]1CN(c2ccc(C#N)n3nccc23)C[C@H](CN2Cc3ccc(N4CCN(C)CC4)cc3C2)O1` [Example 17, 4-[(2R,6S)-2-methyl-6-[[5-(4-methylpiperazin-1-yl)isoindolin-2-yl]methyl]morpholin-4-yl]pyrazolo[1,5-a]pyridine-7-carbonitrile] it was 48 nM; in that of `C[C@@H]1CN(c2ccc(C#N)n3nccc23)C[C@H](CN2Cc3cc(N4CCNCC4)cnc3C2)O1` [Example 18, 4-[(2R,6S)-2-methyl-6-[(3-piperazin-1-yl-5,7-dihydropyrrolo[3,4-b]pyridin-6-yl)methyl]morpholin-4-yl]pyrazolo[1,5-a]pyridine-7-carbonitrile], 48 nM; in that of `C[C@@H]1CN(c2ccc(C#N)c3ncccc23)C[C@H](CN2CCc3cc(N4CCNCC4)ccc3C2)O1` [Example 19, 5-[(2R,6S)-2-methyl-6-[(6-piperazin-1-yl-3,4-dihydro-1H-isoquinolin-2-yl)methyl]morpholin-4-yl]quinoline-8-carbonitrile], 64 nM.

`C[C@@H]1CN(c2ccc(C#N)c3ncccc23)C[C@H](CN2Cc3cc(N4CCNCC4)cnc3C2)O1` [Example 20, 5-[(2R,6S)-2-methyl-6-[(3-piperazin-1-yl-5,7-dihydropyrrolo[3,4-b]pyridin-6-yl)methyl]morpholin-4-yl]quinoline-8-carbonitrile]: the IC50 is 48 nM.

For the compound `C[C@@H]1CN(c2ccc(C#N)c3ncccc23)C[C@H](CN2Cc3ccc(N4CCNCC4)cc3C2)O1` [Example 21, 5-[(2R,6S)-2-methyl-6-[(5-piperazin-1-ylisoindolin-2-yl)methyl]morpholin-4-yl]quinoline-8-carbonitrile], the IC50 is 55 nM.

As to `C[C@@H]1CN(c2ccc(C#N)c3ncsc23)C[C@H](CN2Cc3ccc(N4CCNCC4)cc3C2)O1` [Example 23, 7-[(2R,6S)-2-methyl-6-[(5-piperazin-1-ylisoindolin-2-yl)methyl]morpholin-4-yl]-1,3-benzothiazole-4-carbonitrile], the IC50 turned out to be 75 nM. The value for `C[C@@H]1CN(c2ccc(C#N)c3ncsc23)C[C@H](CN2CCc3cc(N4CCNCC4)ccc3C2)O1` [Example 24, 7-[(2R,6S)-2-methyl-6-[(6-piperazin-1-yl-3,4-dihydro-1H-isoquinolin-2-yl)methyl]morpholin-4-yl]-1,3-benzothiazole-4-carbonitrile] was 81 nM.
